From patent US20150344540A1, “NOVEL GLP-1 RECEPTOR AGONISTS WITH CHOLESTEROL EFFLUX ACTIVITY” (NOVO NORDISK A/S, priority 2012, published 2015)
Where a SMILES comes first, the peptide text is derived from it. [ ]: non-standard residue; d: D form. Aib = CC(C)(N)C(=O)O

Each compound was assayed on Mouse monocyte/macrophage cell line, RAW 264.7 (assay: Cholesterol efflux assay (3H-cholesterol, macrophage cell line)). Conditions: RAW 264.7, 4 hrs incubation, 0.1% human serum albumin, ABCA1-mediated efflux.
Format: cell-based

Row | SMILES | 4 h Cholesterol Efflux Emax
1 | CC[C@H](C)[C@H](NC(=O)[C@H](Cc1ccccc1)NC(=O)[C@H](CCC(=O)O)NC(=O)[C@H](CCCCN)NC(=O)[C@@H](NC(=O)C(C)(C)NC(=O)[C@H](CCC(=O)O)NC(=O)CNC(=O)[C@H](CCC(=O)O)NC(=O)[C@H](CC(C)C)NC(=O)[C@H](Cc1ccc(O)cc1)NC(=O)[C@H](CO)NC(=O)[C@H](CO)NC(=O)[C@@H](NC(=O)[C@H](CC(=O)O)NC(=O)[C@H](CO)NC(=O)[C@@H](NC(=O)[C@H](Cc1ccccc1)NC(=O)[C@@H](NC(=O)CNC(=O)[C@H](CCC(=O)O)NC(=O)C(C)(C)NC(=O)[C@@H](N)Cc1c[nH]cn1)[C@@H](C)O)[C@@H](C)O)C(C)C)C(C)C)C(=O)NC(C)(C)C(=O)N[C@@H](Cc1c[nH]c2ccccc12)C(=O)N[C@@H](CC(C)C)C(=O)N[C@H](C(=O)N[C@@H](CCC(=O)O)C(=O)N[C@@H](CCCCN)C(=O)NC(C)(C)C(=O)N[C@@H](CCCCN)C(=O)N[C@@H](CCC(=O)O)C(=O)N[C@@H](Cc1ccccc1)C(=O)N[C@@H](CC(C)C)C(N)=O)C(C)C [Compound 3, [Aib8,Glu23,Aib24,Val25,Aib30,Glu34,Lys35,Aib36,Lys37]-GLP-1-(7-37)-peptidyl-Glu-Phe-Leu amide] (H-H[Aib]EGTFTSDVSSYLEGE[Aib]VKEFI[Aib]WLVEK[Aib]KEFL-NH2) | 82%
2 | CC[C@H](C)[C@H](NC(=O)[C@H](Cc1ccccc1)NC(=O)[C@H](CCC(=O)O)NC(=O)[C@H](CCCCN)NC(=O)[C@@H](NC(=O)[C@H](C)NC(=O)[C@H](CCC(=O)O)NC(=O)CNC(=O)[C@H](CCC(=O)O)NC(=O)[C@H](CC(C)C)NC(=O)[C@H](Cc1ccc(O)cc1)NC(=O)[C@H](CO)NC(=O)[C@H](CO)NC(=O)[C@@H](NC(=O)[C@H](CC(=O)O)NC(=O)[C@H](CO)NC(=O)[C@@H](NC(=O)[C@H](Cc1ccccc1)NC(=O)[C@@H](NC(=O)CNC(=O)[C@H](CCC(=O)O)NC(=O)C(C)(C)NC(=O)[C@@H](N)Cc1c[nH]cn1)[C@@H](C)O)[C@@H](C)O)C(C)C)C(C)C)C(=O)N[C@@H](CCCCN)C(=O)N[C@@H](Cc1c[nH]c2ccccc12)C(=O)N[C@@H](CC(C)C)C(=O)N[C@H](C(=O)N[C@@H](CCC(=O)O)C(=O)N[C@@H](CCCCN)C(=O)N[C@@H](CC(C)C)C(=O)N[C@@H](CCCCN)C(=O)N[C@@H](CCC(=O)O)C(=O)N[C@@H](Cc1ccccc1)C(=O)N[C@@H](CC(C)C)C(N)=O)C(C)C [Compound 85, [Aib8,Glu23,Val25,Lys30,Glu34,Lys35,Leu36,Lys37]-GLP-1-(7-37)-peptidyl-Glu-Phe-Leu amide] (H-H[Aib]EGTFTSDVSSYLEGEAVKEFIKWLVEKLKEFL-NH2) | 93%
3 | CC[C@H](C)[C@H](NC(=O)[C@H](Cc1ccccc1)NC(=O)[C@H](CCC(=O)O)NC(=O)[C@H](CCCNC(=N)N)NC(=O)[C@@H](NC(=O)[C@H](C)NC(=O)[C@H](CCC(=O)O)NC(=O)CNC(=O)[C@H](CCC(=O)O)NC(=O)[C@H](CCSC)NC(=O)[C@H](CCC(N)=O)NC(=O)[C@H](CCCCN)NC(=O)[C@H](CO)NC(=O)[C@H](CC(C)C)NC(=O)[C@H](CC(=O)O)NC(=O)[C@H](CO)NC(=O)[C@@H](NC(=O)[C@H](Cc1ccccc1)NC(=O)[C@@H](NC(=O)CNC(=O)[C@H](CCC(=O)O)NC(=O)C(C)(C)NC(=O)[C@@H](N)Cc1c[nH]cn1)[C@@H](C)O)[C@@H](C)O)C(C)C)C(=O)N[C@@H](CCC(=O)O)C(=O)N[C@@H](Cc1c[nH]c2ccccc12)C(=O)N[C@@H](CC(C)C)C(=O)N[C@@H](CCCCN)C(=O)N[C@@H](CC(N)=O)C(=O)N[C@@H](CCCCN)C(=O)NC(C)(C)C(=O)N[C@@H](CC(C)C)C(=O)N[C@@H](CCC(=O)O)C(=O)N[C@@H](Cc1ccccc1)C(=O)N[C@@H](CC(C)C)C(=O)N[C@@H](CCC(=O)O)C(=O)N[C@@H](CC(C)C)C(=O)N[C@@H](CC(C)C)C(N)=O [Compound 2, [Aib2, Glv16,Glu21,Lys29,Aib30,Leu31,Glu32,Phe33,Leu34,Glu35,Leu36,Leu371-Exendin-4-(1-37)-peptide amide] (H-H[Aib]EGTFTSDLSKQMEGEAVREFIEWLKNK[Aib]LEFLELL-NH2; N-terminus assumed) | 83%
